From ChEMBL document CHEMBL3616375, “Novel 11β-HSD1 inhibitors: C-1 versus C-2 substitution and effect of the introduction of an oxygen atom in the adamantane scaffold” (Bioorg Med Chem Lett, 2015) come the findings set out here.

Usually IC50 stands for the point on the concentration scale where inhibition reaches its midpoint.

In the experiment the target is 11-beta-hydroxysteroid dehydrogenase 1 (Homo sapiens, UniProt P28845). Nature of the experiment: Inhibition of 11beta-HSD1 in human mixed sex human liver microsomes assessed as reduction in conversion of [3H]-cortisone to [3H]-cortisol pre-incubated for 15 mins before [3H]-cortisone addition in presence of NADPH by scintillation proximity assay. On the technique in general: Liver microsomes are vesicles of endoplasmic reticulum, rich in cytochrome P450 enzymes.
Chain of 11-beta-hydroxysteroid dehydrogenase 1 (P28845 whole entry): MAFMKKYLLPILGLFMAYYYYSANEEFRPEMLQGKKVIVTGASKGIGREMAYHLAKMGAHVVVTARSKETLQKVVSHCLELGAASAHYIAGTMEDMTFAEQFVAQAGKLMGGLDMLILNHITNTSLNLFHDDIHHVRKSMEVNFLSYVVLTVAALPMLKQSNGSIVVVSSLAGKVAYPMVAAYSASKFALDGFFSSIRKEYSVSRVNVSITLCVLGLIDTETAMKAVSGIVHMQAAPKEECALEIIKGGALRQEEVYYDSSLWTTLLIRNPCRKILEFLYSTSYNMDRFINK

Consider `O=C(NC1C2CC3CC(C2)CC1C3)C1CCCCC1` (stereo unspecified), for which the IC50 was 0.086 µM.
